From US20170290882A1, “Specific Combined Therapy of Malignant Tumors with a Cytostatic and Its Modifier” (priority 2015, published 2017)

Tests used:
[1] = test system: P388 lymphoplastic leukemia; experiment: Combined therapy different cytostatics+GMDP-A in the P388 lymphoplastic leukemia model; type: in vivo, BDF1 mice; conditions: single cytostatic alone (DDP 1/2, gemzar 1/2, CP 1/4 therapeutic dose), start 24 hours after inoculation
Experimental: Anti-tumor efficiency of the claimed combined therapy and comparative monotherapy using only a cytostatic or only GMDP-A modifier was assessed by the criteria commonly used in experimental oncology: tumor volume (TV), tumor growth inhibition (TGI), increase of the animal life time (ILT), tumor metastasis frequency (MF), metastasis inhibition rate (MI).
Comparative study was carried out of the GMDP-A modifying effect relatively different cytostatic agents: cisplatin (DDP), gemzar and cyclophosphan (CP), in the P388 lymphoplastic leukemia model. Efficiency of combined therapy with cytostatics and GMDP-A was assessed while using DDP in amount of ½ therapeutic dose, gemzar as ½ therapeutic dose and CP in amount of ¼ therapeutic dose. Treatment was started on the early term of tumor growth (in 24 hours after inoculation); GMDP-A was injected during 21 days in a daily dose of 3.75 mg/kg. The drug was administered subcutaneously in 2 areas: in the tumor growth area (over the tumor) or in symmetry area (on the opposite side of the tumor node).
The following commercially-available drugs were used: Cyclophosphan Endoxan® trade mark, manufactured by Baxter Oncology GmbH, Germany; Cisplatin, Cisplatin Teva trade mark, manufacturer is Teva Pharmaceutical Industries Ltd., Israel (fabricated at Pharmachemie B. V., the Netherlands); Gemcitabine, Gemcitar trade mark, manufactured by CJSC Biocad, Russia.
1 mg/ml GMDP-A solution for subcutaneous injection was prepared by dissolving GMDP-A lyophilisate in water for injections.

B16 melanoma = experiment: Binary therapy DDP+GMDP-A in the B16 melanoma model; type: in vivo, BDF1 mice; conditions: single DDP 4 mg/kg i.v. alone
Experimental: (§1) They were transplanted on the right-side surface of the animal body.
(§2) The animals with tumors were treated in test groups at the early (24 hours after tumor inoculation) and late (5 days after tumor inoculation) terms of the tumor growth using a single cytostatic injection intravenously in a dose equal to ½ or ¼ of therapeutic one and various schedules for GMDP-A injection: • Primary subcutaneous injection of GMDP-A modifier in a single dose 3.75 mg/kg; • Repeated protracted subcutaneous administration of GMDP-A modifier according to different schedules: 4-fold, 9-fold and 20-fold, once per day, in a single dose of 3.75 mg/kg (course dose is 18.75 mg/kg, 37.5 mg/kg and 78.75 mg/kg, correspondingly). Dosage frequency depends upon the model (histological form of transplanted tumor).
(§3) To identify efficiency of the claimed combined therapy, independent medication was carried out as a control after tumor inoculation using one component of binary therapy-cytostatic drug or a modifier. Cytostatic was injected intravenously in amount of ½ or ¼ of therapeutic dose once after 24 hours or 5 days after tumor inoculation; GMDP-A modifier was administered subcutaneously in a single dose of 3.75 mg/kg 5-fold from the 1st day to the 5th day or from the 5th day to the 9th day, or 10-fold from the 1st day to the 10th day or from the 5th day to the 14th day, or 21-fold from the 1st day to the 21st day after tumor inoculation.
Efficiency of the combined therapy—chemotherapy with DDP cytostatic and biotherapy with GMDP-A was assessed on B16 melanoma model inoculated to BDF1 mice, females, subcutaneously on the right-side body surface.
GMDP-A was administered to mice subcutaneously as a single dose of 3.75 mg/kg every day with different schedules:
Five-fold (total dose is 18.75 mg/kg) on the 1st day to the 5th day or on the 5th day to the 9th day after tumor inoculation;
Ten-fold (total dose is 37.5 mg/kg) on the 1st day to the 10th day or on the 5th day to the 14th day after tumor inoculation;
DDP (Cisplatin, Cisplatin Teva trade mark, manufacturer is Teva Pharmaceutical Industries Ltd., Israel, fabricated at Pharmachemie B.V., the Netherlands) was administered intravenously as a single dose of 4 mg/kg (½ of therapeutic dose).

[2] = test system: P388 lymphoplastic leukemia; experiment: GMDP-A lyophilisate versus final pharmaceutical form, alone and with DDP, in the P388 lymphoplastic leukemia model; type: in vivo, BDF1 mice; conditions: if given, 21-fold, single
Experimental: Therapeutic efficiency of GMDP-A lyophilisate and the GMDP-A final pharmaceutical form was compared in the model of P338 lymphoplastic leukemia solid version at the early treatment start (in 24 hour after subcutaneous transplantation of tumor material) as GMDP-A monotherapy (lyophilisate or the final pharmaceutical form) as well as combined administration with DDP.
As a final pharmaceutical form, “GMDP-A, 1 mg/ml solution for subcutaneous injection” sterile solutions were used. They contained GMDP-A and the following auxiliary substances and carriers in pharmaceutically-accepted amounts: sorbitol, disodium edeteate, propylene glycol, water.

[3] = test system: P388 lymphoplastic leukemia; experiment: Combined therapy DDP+GMDP-A in the P388 lymphoplastic leukemia model; type: in vivo, mice BDF1; conditions: single DDP 4 mg/kg i.v. alone
Experimental: as §1, §2, §3
Efficiency of the combined therapy—chemotherapy with cisplatin cytostatic (DDP) and bioherapy with GMDP-A was assessed on P388 lymphoplastic leukemia model inoculated to mice BDF1, females, subcutaneously on the right-side body surface.
GMDP-A was administered to mice subcutaneously as a single dose of 3.75 mg/kg every day with different schedules: • Five-fold (total dose is 18.75 mg/kg) on the 1st day to the 5th day or on the 5th day to the 9th day after tumor inoculation; • Ten-fold (total dose is 37.5 mg/kg) on the 1st day to the 10th day or on the 5th day to the 14th day after tumor inoculation; • Twenty-one-fold (total dose is 78.75 mg/kg) on the 1st day to the 21st st day after tumor inoculation.
DDP (Cisplatin, Cisplatin Teva trade mark, manufacturer is Teva Pharmaceutical Industries Ltd., Israel, fabricated at Pharmachemie B.V., the Netherlands) was administered intravenously as a single dose ma 4 mg/kg (½ of therapeutic dose).

[4] = during intravenous injection; cited from earlier work

O=P1(N(CCCl)CCCl)NCCCO1 (stereo not drawn) [CP, cyclophosphan]
tumor growth inhibition (TGI) ([1]; day 7): 89%
tumor growth inhibition (TGI) ([1]; day 12): 86%
tumor growth inhibition (TGI) ([1]; day 14): 85%
tumor growth inhibition (TGI) ([1]; day 19): 76%
tumor growth inhibition (TGI) ([1]; day 21): 77%
Average life time [1]: 31 ± 2 days
ILT (increase of the animal life time) [1]: 30%
Metastasis MF (tumor metastasis frequency) [1]: 100%
Metastasis MI (metastasis inhibition rate) [1]: 89%

N.N.[Cl][Pt][Cl] [DDP, cisplatin, reference compound]
tumor growth inhibition (TGI) ([1]; day 7): 27%
tumor growth inhibition (TGI) ([1]; day 12): 36%
tumor growth inhibition (TGI) ([1]; day 14): 43%
tumor growth inhibition (TGI) ([1]; day 19): 33%
tumor growth inhibition (TGI) ([1]; day 21): 22%
Average life time [1]: 26 ± 1 days
ILT (increase of the animal life time) [1]: 9%
Metastasis MF (tumor metastasis frequency) [1]: 100%
Metastasis MI (metastasis inhibition rate) [1]: 40%
Tumor volume (B16 melanoma; day 7, early start (1st day)): 3 ± 3 mm^3
tumor growth inhibition (TGI) (B16 melanoma; day 7, early start (1st day)): 94%
Tumor volume (B16 melanoma; day 9, early start (1st day)): 13 ± 5 mm^3
tumor growth inhibition (TGI) (B16 melanoma; day 9, early start (1st day)): 89%
Tumor volume (B16 melanoma; day 9, late start (5th day)): 51 ± 8 mm^3
tumor growth inhibition (TGI) (B16 melanoma; day 9, late start (5th day)): 56%
Tumor volume (B16 melanoma; day 12, early start (1st day)): 54 ± 18 mm^3
tumor growth inhibition (TGI) (B16 melanoma; day 12, early start (1st day)): 80%
Tumor volume (B16 melanoma; day 12, late start (5th day)): 163 ± 22 mm^3
tumor growth inhibition (TGI) (B16 melanoma; day 12, late start (5th day)): 38%
Tumor volume (B16 melanoma; day 14, early start (1st day)): 117 ± 20 mm^3
tumor growth inhibition (TGI) (B16 melanoma; day 14, early start (1st day)): 69%
Tumor volume (B16 melanoma; day 14, late start (5th day)): 270 ± 45 mm^3
tumor growth inhibition (TGI) (B16 melanoma; day 14, late start (5th day)): 23%
Tumor volume (B16 melanoma; day 16, early start (1st day)): 232 ± 36 mm^3
tumor growth inhibition (TGI) (B16 melanoma; day 16, early start (1st day)): 58%
Tumor volume (B16 melanoma; day 16, late start (5th day)): 424 ± 43 mm^3
tumor growth inhibition (TGI) (B16 melanoma; day 16, late start (5th day)): 24%
Tumor volume (B16 melanoma; day 19, early start (1st day)): 653 ± 176 mm^3
tumor growth inhibition (TGI) (B16 melanoma; day 19, early start (1st day)): 39%
Tumor volume (B16 melanoma; day 19, late start (5th day)): 1010 ± 173 mm^3
tumor growth inhibition (TGI) (B16 melanoma; day 19, late start (5th day)): 5%
Average life time (B16 melanoma; early start (1st day)): 28 ± 3 days
ILT (increase of the animal life time) (B16 melanoma; early start (1st day)): 33%
Metastasis MF (tumor metastasis frequency) (B16 melanoma; early start (1st day)): 20%
Metastasis MI (metastasis inhibition rate) (B16 melanoma; early start (1st day)): 99%
Average life time (B16 melanoma; late start (5th day)): 25 ± 3 days
ILT (increase of the animal life time) (B16 melanoma; late start (5th day)): 19%
Metastasis MF (tumor metastasis frequency) (B16 melanoma; late start (5th day)): 100%
Metastasis MI (metastasis inhibition rate) (B16 melanoma; late start (5th day)): 11%
Tumor volume ([2]; day 8, early start (24 hour)): 29.4 ± 5.3 mm^3
tumor growth inhibition (TGI) ([2]; day 8, early start (24 hour)): 65%
Tumor volume ([2]; day 12, early start (24 hour)): 53.6 ± 5.4 mm^3
tumor growth inhibition (TGI) ([2]; day 12, early start (24 hour)): 67%
Tumor volume ([2]; day 16, early start (24 hour)): 96.3 ± 5.1 mm^3
tumor growth inhibition (TGI) ([2]; day 16, early start (24 hour)): 73%
Tumor volume ([2]; day 20, early start (24 hour)): 440 ± 26.7 mm^3
tumor growth inhibition (TGI) ([2]; day 20, early start (24 hour)): 58%
Average life time ([2]; early start (24 hour)): 30.0 ± 2.8 days
ILT (increase of the animal life time) ([2]; early start (24 hour)): 22%
Metastasis (upper, unnamed value in the Metastasis inhibition index column) ([2]; early start (24 hour)): 172.0 ± 14.4
Metastasis MF (tumor metastasis frequency) ([2]; early start (24 hour)): 100%
Metastasis inhibition index ([2]; early start (24 hour)): 32%
Tumor volume ([3]; day 7, early start (1st day)): 37.9 ± 4.5 mm^3
tumor growth inhibition (TGI) ([3]; day 7, early start (1st day)): 64%
Tumor volume ([3]; day 7, late start (5th day)): 75.4 ± 4.8 mm^3
tumor growth inhibition (TGI) ([3]; day 7, late start (5th day)): 28%
Tumor volume ([3]; day 9, early start (1st day)): 67.5 ± 7.7 mm^3
tumor growth inhibition (TGI) ([3]; day 9, early start (1st day)): 53%
Tumor volume ([3]; day 9, late start (5th day)): 65.7 ± 6.2 mm^3
tumor growth inhibition (TGI) ([3]; day 9, late start (5th day)): 54%
Tumor volume ([3]; day 12, early start (1st day)): 76.7 ± 7.7 mm^3
tumor growth inhibition (TGI) ([3]; day 12, early start (1st day)): 61%
Tumor volume ([3]; day 12, late start (5th day)): 95.9 ± 8.4 mm^3
tumor growth inhibition (TGI) ([3]; day 12, late start (5th day)): 51%
Tumor volume ([3]; day 14, early start (1st day)): 155.3 ± 12 mm^3
tumor growth inhibition (TGI) ([3]; day 14, early start (1st day)): 42%
Tumor volume ([3]; day 14, late start (5th day)): 149.3 ± 11.6 mm^3
tumor growth inhibition (TGI) ([3]; day 14, late start (5th day)): 44%
Tumor volume ([3]; day 19, early start (1st day)): 374.1 ± 28.4 mm^3
tumor growth inhibition (TGI) ([3]; day 19, early start (1st day)): 41%
Tumor volume ([3]; day 19, late start (5th day)): 448.9 ± 33.2 mm^3
tumor growth inhibition (TGI) ([3]; day 19, late start (5th day)): 30%
Average life time ([3]; early start (1st day)): 23 ± 0.7 days
ILT (increase of the animal life time) ([3]; early start (1st day)): −4%
Metastasis MF (tumor metastasis frequency) ([3]; early start (1st day)): 100%
Metastasis MI (metastasis inhibition rate) ([3]; early start (1st day)): 49%
Average life time ([3]; late start (5th day)): 24 ± 0.6 days
ILT (increase of the animal life time) ([3]; late start (5th day)): 0%
Metastasis MF (tumor metastasis frequency) ([3]; late start (5th day)): 100%
Metastasis MI (metastasis inhibition rate) ([3]; late start (5th day)): 50%

CC(=O)N[C@H]1[C@H](O[C@H]2[C@H](O[C@H](C)C(=O)N[C@@H](C)C(=O)N[C@H](CCC(=O)O)C(N)=O)[C@@H](NC(C)=O)C(O)O[C@@H]2CO)O[C@H](CO)[C@@H](O)[C@@H]1O (stereo partly drawn) [GMDP, N-acetyl-D-glucosaminyl-β-(1-4)-N-acetylmuramoyl-L-alanyl-D-isoglutamine]
Pyrogenicity [4]: pyrogenic effect

Nc1ccn([C@@H]2O[C@H](CO)[C@@H](O)C2(F)F)c(=O)n1 [Gemzar, Gemcitabine]
tumor growth inhibition (TGI) ([1]; day 7): 60%
tumor growth inhibition (TGI) ([1]; day 12): 37%
tumor growth inhibition (TGI) ([1]; day 14): 34%
tumor growth inhibition (TGI) ([1]; day 19): 45%
tumor growth inhibition (TGI) ([1]; day 21): 44%
Average life time [1]: 29 ± 2 days
ILT (increase of the animal life time) [1]: 21%
Metastasis MF (tumor metastasis frequency) [1]: 100%
Metastasis MI (metastasis inhibition rate) [1]: 69%
